# Laboratory results from patent US7119115B2, “Indazole or indole derivatives, and use thereof in human medicine and more particularly in oncology” (Aventis Pharma S.A., priority 2001, dated 2006).
# How the values were obtained:
# [1] = molecular target: T1, Tubulin (Sus scrofa, UniProt P02550+P02554); test: Evaluation of the inhibition of tubulin polymerization (turbidimetry at 350 nm); assay type: biochemical; details: concentration that inhibits the rate of polymerization by 50%; pig brain tubulin 10 μM
# T1 construct: Tubulin is purified from pig brain according to published methods; from tissue; host or cells: pig brain
# T1 sequence (P02550 whole entry): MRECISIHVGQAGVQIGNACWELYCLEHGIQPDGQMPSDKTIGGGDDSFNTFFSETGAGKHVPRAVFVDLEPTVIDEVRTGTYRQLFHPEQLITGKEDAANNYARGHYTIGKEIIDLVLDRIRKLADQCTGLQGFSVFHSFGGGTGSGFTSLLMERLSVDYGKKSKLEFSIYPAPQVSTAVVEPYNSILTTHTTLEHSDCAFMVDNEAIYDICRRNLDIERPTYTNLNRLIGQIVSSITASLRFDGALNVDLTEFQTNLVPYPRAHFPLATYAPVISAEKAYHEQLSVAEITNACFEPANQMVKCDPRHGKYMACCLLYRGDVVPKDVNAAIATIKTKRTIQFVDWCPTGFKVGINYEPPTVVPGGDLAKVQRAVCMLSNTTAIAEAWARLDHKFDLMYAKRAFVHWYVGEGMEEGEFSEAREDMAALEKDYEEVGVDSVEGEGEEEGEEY
# T1 sequence (P02554 whole entry): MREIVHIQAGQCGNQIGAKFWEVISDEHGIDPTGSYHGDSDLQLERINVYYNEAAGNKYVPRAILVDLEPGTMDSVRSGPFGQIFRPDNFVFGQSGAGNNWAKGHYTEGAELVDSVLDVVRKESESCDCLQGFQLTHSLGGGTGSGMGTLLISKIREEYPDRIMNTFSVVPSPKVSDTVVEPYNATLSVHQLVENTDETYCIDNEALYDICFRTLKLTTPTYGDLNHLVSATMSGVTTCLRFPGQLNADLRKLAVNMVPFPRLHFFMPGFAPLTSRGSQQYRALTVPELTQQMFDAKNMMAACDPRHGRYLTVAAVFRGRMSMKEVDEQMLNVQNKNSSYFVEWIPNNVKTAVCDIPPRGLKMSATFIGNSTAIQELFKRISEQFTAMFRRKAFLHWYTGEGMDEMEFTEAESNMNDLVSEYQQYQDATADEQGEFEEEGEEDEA
# Description: Briefly, the brains are ground and centrifuged in an extraction buffer. The tubulin contained in the supernatant of the extract undergoes two successive cycles of polymerization at 37° C. and depolymerization at 4° C., before being separated from the MAPs (Microtubule Associated Proteins) by chromatography on a phosphocellulose P11 column (Whatman). […] It is stored in a buffer known as RB/2 30% glycerol, the composition of which is 50 mM MES-NaOH [2-(N-morpholino)ethanesulphonic acid], pH 6.8; 0.25 mM MgCl2; 0.5 mM EGTA; 30% glycerol (v/v), 0.2 mM GTP (guanosine-5′-triphosphate).
# The polymerization of tubulin to microtubules is monitored by turbidimetry as follows: the tubulin is adjusted to a concentration of 10 μM (1 mg/ml) in RB/2 30% glycerol buffer to which 1 mM GTP and 6 mM MgCl2 are added. […] The increase in the turbidity of the solution is monitored at 350 nm.
# The products are dissolved at 10 mM in DMSO and added at variable concentrations (0.5 to 10 μM) to the tubulin solution before polymerization.
# [2] = system: HDMEC cells (Human Dermal Microvascular Endothelial Cells); test: Detachment of endothelial cells in vitro (test for determining the inhibition of vascularization); assay type: cell-based; details: two hours of treatment, relative to control (untreated cells); for inhibition at 1 µM: Homo sapiens, Endothelial cell, 2 h
# Source text: A test for determining the detachment of the endothelial cells was developed in order to select the products with regard to their “in vitro” activity. This test for determining the detachment of endothelial cells is characterized in that the endothelial cells, inoculated into plates whose bottom is covered with a binder preferably chosen from gelatin, fibronectin and vitronectin, after culturing, are supplemented with a medium containing the test compound, and the cells are then labelled with a fluorescent substance, the cells which have become detached are removed by washing and the fluorescence of the remaining cells is counted in a fluorimeter.
# This test consists in measuring the detachment of endothelial cells cultured on substrata based on a binder preferably chosen from fibronectin, vitronectin and gelatin. Preferably, a day after the inoculation of the cells in plates containing, for example, 96 wells, the culture medium is replaced with a medium containing the test compound in the absence of serum. The same preparation is prepared six times at three different concentrations ([…]) and the control six times without addition of antivascular product. After two hours of treatment with the test substance, the cells are labelled with calcein-AM (1.6 μg/ml) in culture medium supplemented with 0.1% BSA. The cells that have become detached are removed by washing with the culture medium containing 0.1% bovine serum albumin; 100 μl of medium are added to each well. The fluorescence of the remaining cells is counted in a fluorimeter. The data obtained are expressed relative to the control (untreated cells).
# The evaluation of the detachment of the endothelial cells in vitro is determined in the following manner. HDMEC cells (Human Dermal Microvascular Endothelial Cells, Promocell, c-122102) are cultured in an ECGM-MV medium that contains 5% foetal calf serum, growth factors (EGF 10 ng/ml, hydrocortisone 1 μg/ml, 0.4% growth supplement with heparin) and antibiotics (amphotericin 50 ng/ml, gentamycin 50 μg/ml). For the detachment test, the HDMECs are inoculated at a rate of 5 000 cells in clear-bottomed 96-well plates (Costar) precoated with fibronectin (10 μg/ml), vitronectin (1 μg/ml) or gelatin. Twenty-four hours later, the culture medium is replaced with ECGM-MV 0.1% BSA medium containing the products indicated. The concentrations tested are 0.1–0.3 and 1 μM for each product. After two hours of treatment, the cells are labelled for one hour with calcein (1.6 μg/ml, Molecular Probes) in ECGM-MV 0.1% BSA medium. The detached cells are then removed by washing with ECGM-MV 0.1% BSA medium; 100 μl of medium is added to each well. The fluorescence of the cells that remain attached to the substratum of the well is counted using a fluorimeter, Spectrafluor Plus (Tecan excitation 485 nm, and emission 535 nm). The data are the mean of six different samples and are expressed as the percentage of the control (untreated cells).
# A cell detachment effect of greater than or equal to 15% is considered as significant.
Compound,IC50 [1],melting point,inhibition at 1 µM [2],% detachment 1 μM [2]
"C=CC(=O)n1nc(N)c2c1CC(c1ccccc1)(c1ccccc1)C=C2 [Example 7-2, 1-(3-Amino-6,6-diphenyl-6,7-dihydroindazol-1-yl)propenone]",5 µM,–,25%,–
"CCOC(=O)c1n[nH]c2c1C=CC(c1ccccc1)(c1ccc(F)cc1)C2 (single isomer, unassigned) [Example 10-3B, ethyl 6-(4-fluorophenyl)-6-phenyl-6,7-dihydro-1H-indazole-3-carboxylate]",1 µM,–,19%,–
"O=C(Nc1n[nH]c2c1C=CC(c1ccccc1)(c1ccccc1)C2)c1ccccc1 [Example 7-4, N-[6,6-Diphenyl-6,7-dihydro-1H-indazol-3-yl]benzamide]",6 µM,–,18%,–
"O=C(c1n[nH]c2c1C=CC(c1ccc(F)cc1)(c1ccc(F)cc1)C2)C1CC1 [Example 10-7, Cyclopropyl[6,6-bis(4-fluorophenyl)-6,7-dihydro-1H-indazol-3-yl]methanone]",1 µM,–,24%,–
"CCOC(=O)c1n[nH]c2c1C=CC(c1ccccc1)(c1ccc(F)cc1)C2 (racemic) [Example 10-3A, ethyl (R,S)-6-(4-fluorophenyl)-6-phenyl-6,7-dihydro-1H-indazole-3-carboxylate]",1.2 µM,–,16%,–
"CCOC(=O)c1c[nH]c2c1C=CC(c1ccccc1)(c1ccccc1)C2 [Example 12, Ethyl 6,6-diphenyl-6,7-dihydro-1H-indole-3-carboxylate]",2 µM,–,17%,–
"O/N=C(\c1n[nH]c2c1C=CC(c1ccc(F)cc1)(c1ccc(F)cc1)C2)C1CC1 [Example 10-8A, cyclopropyl[6,6-bis(4-fluorophenyl)-6,7-dihydro-1H-indazol-3-yl]methanone oxime]",1.5 µM,–,17%,–
"(R,S)-cyclopropyl[6-(4-fluorophenyl)-6-phenyl-6,7-dihydro-1H-indazol-3-yl]methanone [Example 10-4A]",1 µM,–,–,33%

# Now from value to compound, other results behind:
IC50 [1],melting point,Compound,inhibition at 1 µM [2],% detachment 1 μM [2]
2.5 µM,–,"O=C(NC1CC1)c1n[nH]c2c1C=CC(c1ccccc1)(c1ccccc1)C2 [Example 3-1, N-(cyclopropyl)-6,6-diphenyl-6,7-dihydro-1H-indazole-3-carboxamide]",20%,–
0.8 µM,–,"CON=C(c1[nH]nc2c1C=CC(c1ccccc1)(c1ccccc1)C2)C1CC1 [Example 6-3A, cyclopropyl(6,6-diphenyl-6,7-dihydro-2H-indazol-3-yl)methanone O-methyloxime]",26%,–
0.8 µM,–,"O=C(c1n[nH]c2c1C=CC(c1ccccc1)(c1ccccc1)C2)C1CC1 [Example 5-1, Cyclopropyl(6,6-diphenyl-6,7-dihydro-1H-indazol-3-yl)methanone]",29%,–
6 µM,184 °C,"CON=Cc1n[nH]c2c1C=CC(c1ccccc1)(c1ccccc1)C2 (mixture of isomers) [Example 6-4, 6,6-diphenyl-6,7-dihydro-1H-indazole-3-carbaldehyde O-methyloxime]",–,–
1.5 µM,–,"CCOC(=O)c1[nH]nc2c1C=CC(c1ccccc1)(c1ccccc1)C2 [Example 1, Ethyl 6,6-diphenyl-6,7-dihydro-2H-indazole-3-carboxylate]",20%,–
1 µM,–,"C=CCO/N=C(\c1n[nH]c2c1C=CC(c1ccccc1)(c1ccccc1)C2)C1CC1 [Example 6-6A, cyclopropyl(6,6-diphenyl-6,7-dihydro-1H-indazol-3-yl)methanone O-allyloxime]",17%,–
1.1 µM,–,"O=C(c1n[nH]c2c1C=CC(c1ccccc1)(c1ccccc1)C2)C1CCC1 [Example 5-2, Cyclobutyl(6,6-diphenyl-6,7-dihydro-1H-indazol-3-yl)methanone]",19%,–
4.5 µM,285 °C,"O=C(c1n[nH]c2c1C=CC(c1ccccc1)(c1ccccc1)C2)N1CCC1 [Example 3-2, Azetidin-1-yl(6,6-diphenyl-6,7-dihydro-1H-indazol-3-yl)methanone]",–,–
9 µM,–,"Cc1noc(-c2n[nH]c3c2C=CC(c2ccccc2)(c2ccccc2)C3)n1 [Example 8-1, 3-(3-Methyl[1,2,4]oxadiazol-5-yl)-6,6-diphenyl-6,7-dihydro-1H-indazole]",24%,–
0.6 µM,–,"ON=C(c1n[nH]c2c1C=CC(c1ccccc1)(c1ccccc1)C2)C1CC1 (single isomer, unassigned) [Example 6-1A, cyclopropyl(6,6-diphenyl-6,7-dihydro-1H-indazol-3-yl)methanone oxime]",34%,–
1 µM,–,"ON=C(c1n[nH]c2c1C=CC(c1ccccc1)(c1ccc(F)cc1)C2)C1CC1 (single isomer, unassigned) [Example 10-5A]",25%,–
1 µM,–,"ON=C(c1n[nH]c2c1C=CC(c1ccccc1)(c1ccccc1)C2)C1CCC1 [Example 6-2A, cyclobutyl(6,6-diphenyl-6,7-dihydro-1H-indazol-3-yl)methanone oxime]",18%,–
